How the values were obtained:
CA-755 Adenocarcinoma = assay: In vivo tumor growth inhibition, subcutaneously implanted tumor in mice; conditions: intravenous injection twice daily for five days, started the day following inoculation
Protocol: (§1) The compound of the above example has been extensively evaluated for oncolytic activity in in vivo laboratory studies. In a typical experiment, laboratory mice were infected by subcutaneous implantation of a tumor tissue in the axillary region of the body. The implantations were accomplished by means of a trocar. Initial tumor size in each animal generally was about 2 square millimeters. Control animals received saline. Tumors were measured using vernier calipers (length and width in mm) following a specified period of treatment. The length and width measurements were converted to tumor weight by the formula: • The percent inhibition of tumor growth was then calculated for each dose level at which the compound was evaluated. Typical tumor systems implanted and against which the compound was evaluated include the CA-755 strain of adenocarcinoma, the M-5 ovarian carcinoma, the 6C3HED lymphosarcoma, the X-5563 plasma cell myeloma, the Lewis lung carcinoma, colon carcinoma-26, and C3H mammary adenocarcinoma.
(§2) Each test group consisted of ten mice. R-N-(2-phenyl-2-hydroxyethyl)-1,i-dimethyl-3-(4-aminocarbonylphenyl)propylamine hydrochloride was dissolved in 5% aqueous saline and administered twice daily for five days as a 0.2 ml intravenous injection. Treatment was initiated on the day following inoculation of the test animals.

[1] = test system: C3H Mammary Adenocarcinoma; assay: as above; conditions: intravenous injection twice daily for five days, started the day following inoculation
Protocol: as §1, §2

6C3HED Lymphosarcoma = assay: as above; conditions: intravenous injection twice daily for five days, started the day following inoculation
Protocol: as §1, §2

Lewis Lung Carcinoma = assay: as above; conditions: intravenous injection twice daily for five days, started the day following inoculation
Protocol: as §1, §2

[2] = test system: X-5563 Plasma Cell Myeloma; assay: as above; conditions: intravenous injection twice daily for five days, started the day following inoculation
Protocol: as §1, §2

Colon Carcinoma-26 = assay: In vivo tumor growth inhibition, delayed treatment of established tumor in mice; conditions: I.V. injection twice daily for five days, 3 days delay following inoculation
Protocol: as §1
(§3) Table II presents the results of studies carried out substantially as described above, except the treatment regimens were delayed for a short period following inoculation to permit the tumor to become established and start growing. Treatment consisted of I.V. injection of 02 ml of the appropriate amount of R-N-(2-phenyl-2-hydroxyethyl)-1,1-dimethyl-3-(4-aminocarbonylphenyl)propylamine hydrochloride in 5% aqueous saline twice daily for five days. Tumors were then measured as described above and compared with untreated controls.

M-5 Ovarian Carcinoma = assay: as above; conditions: I.V. injection twice daily for five days, 5 days delay following inoculation
Protocol: as §1, §3

[3] = test system: Chinese hamster ovary cells; assay: Cell cycle accumulation in cells grown in low calcium medium; type: cell-based
Description: (§4) The potent oncolytic activity of the compound to be employed in the present method of treatment has been established in standard tests designed to evaluate antitumor activity. […] The effect on spindle; microtubules appears to reflect a specific effect on the microtubule organizing center of the spindle, i.e., the centrosomes. These studies have been documented by immunofluorescent light microscopy, transmission electron microscopy and flow cytometric techniques. […] In cell culture, the compound has antimitotic activity at 2.5 u.g/ml and affects mitochondrial function at 0.01 u.g/ml as measured by alterations in Rhodamine 123 binding.

cell culture = assay: Antimitotic activity in cell culture; type: cell-based; conditions: concentration at which activity is seen
Description: as §4

cytoplasmic microtubules = assay: Cell biology studies of microtubules (immunofluorescent light microscopy, transmission electron microscopy, flow cytometry); type: cell-based; conditions: appears to affect only the spindle microtubules
Description: as §4

## CC(C)(CCc1ccc(C(N)=O)cc1)NC[C@H](O)c1ccccc1.Cl [Compound, R-N-(2-phenyl-2-hydroxyethyl)-1,1-dimethyl-3-(4-aminocarbonylphenyl)propylamine hydrochloride]
CA-755 Adenocarcinoma; Dose 10 mg/kg
  % Inhibition: 79%
CA-755 Adenocarcinoma; Dose 20 mg/kg
  % Inhibition: 95%
CA-755 Adenocarcinoma; Dose 40 mg/kg
  % Inhibition: 92%
CA-755 Adenocarcinoma; Dose 80 mg/kg
  % Inhibition: 95%
[1]; Dose 20 mg/kg
  % Inhibition: 57%
[1]; Dose 40 mg/kg
  % Inhibition: 95%
[1]; Dose 80 mg/kg
  % Inhibition: 96%
6C3HED Lymphosarcoma; Dose 20 mg/kg
  % Inhibition: 11%
6C3HED Lymphosarcoma; Dose 40 mg/kg
  % Inhibition: 9%
6C3HED Lymphosarcoma; Dose 80 mg/kg
  % Inhibition: 23%
Lewis Lung Carcinoma; Dose 20 mg/kg
  % Inhibition: 35%
Lewis Lung Carcinoma; Dose 40 mg/kg
  % Inhibition: 68%
Lewis Lung Carcinoma; Dose 80 mg/kg
  % Inhibition: 81%
[2]; Dose 20 mg/kg
  % Inhibition: 29%
[2]; Dose 40 mg/kg
  % Inhibition: 21%
[2]; Dose 80 mg/kg
  % Inhibition: 65%
Colon Carcinoma-26; Dose 20 (mg/ml)
  % Inhibition: 30%
  Deaths/total mice in group: 0/10
Colon Carcinoma-26; Dose 40 (mg/ml)
  % Inhibition: 61%
  Deaths/total mice in group: 1/10
Colon Carcinoma-26; Dose 80 (mg/ml)
  % Inhibition: 64%
  Deaths/total mice in group: 4/9
M-5 Ovarian Carcinoma; Dose 20 (mg/ml)
  % Inhibition: 40%
  Deaths/total mice in group: 0/10
M-5 Ovarian Carcinoma; Dose 40 (mg/ml)
  % Inhibition: 61%
  Deaths/total mice in group: 0/10
M-5 Ovarian Carcinoma; Dose 80 (mg/ml)
  % Inhibition: 81%
  Deaths/total mice in group: 0/10
[3]
  S-phase accumulation: causes an S-phase accumulation
Cell culture
  minimal effective concentration: 2.5 µg/mL
Cytoplasmic microtubules
  effect on cytoplasmic microtubules: no apparent effect
